Results on four molecules are retold here after US20130123222A1, “Synergistic Anti-Cancer Activity of SR16388 with Anti-Mitotic Drugs” (SRI INTERNATIONAL, INC., priority 2011, published 2013).

What all share (assay type): cell-based
For test [1], the system named is NCIH460. Briefly: 11×7 synergism hit rate. Conditions: NSCLC NCIH460, combination with SR16388. From the text:
(§1) SR16388 was synthesized in house.
(§2) Within the same type of cancer cells, some cell lines have more synergistic hits than others. Melanoma and breast cancer cell lines had the highest hit rate.

Test [2] relates to HL60. Nature of the test: 11×7 synergism hit rate. The following applies: Leukemia HL60, combination with SR16388.
Description: as §1, §2

Test [3] deals with COLO205. Nature of the test: 11×7 synergism hit rate. The following applies: Colon Cancer COLO205, combination with SR16388.
Description: as §1, §2

For test [4], the system named is A498. Nature of the test: 11×7 synergism hit rate. Conditions: Renal Cancer A498, combination with SR16388.
Description: as §1, §2

For test [5], the system named is NCIH226. Briefly: 11×7 synergism hit rate. Conditions: NSCLC NCIH226, combination with SR16388.
Description: as §1, §2

The test system of test [6] is SNB19. Nature of the test: 11×7 synergism hit rate. The following applies: CNS Cancer SNB19, combination with SR16388.
Description: as §1, §2

Test [7] deals with ADRRES. Briefly: 11×7 synergism hit rate. The following applies: Ovarian Cancer ADRRES, combination with SR16388.
Description: as §1, §2

For test [8], the system named is HS578T. Nature of the test: 11×7 synergism hit rate. Conditions: Breast Cancer HS578T, combination with SR16388.
Description: as §1, §2

The subject of test [9] is PCS. Nature of the test: 11×7 synergism hit rate. The following applies: Prostate Cancer PCS, combination with SR16388.
Description: as §1, §2

For test [10], the system named is TK10. Briefly: 11×7 synergism hit rate. The following applies: Renal Cancer TK10, combination with SR16388.
Description: as §1, §2

Test [11] has as its system K562. Briefly: 11×7 synergism hit rate. Conditions: Leukemia K562, combination with SR16388.
Description: as §1, §2

In test [12] the test system is UACC62. Briefly: 11×7 synergism hit rate. The following applies: Melanoma UACC62, combination with SR16388.
Description: as §1, §2

In test [13] the test system is KM12. Briefly: 11×7 synergism hit rate. Conditions: Colon Cancer KM12, combination with SR16388.
Description: as §1, §2

Test [14] concerns BT549. Briefly: 11×7 synergism hit rate. Conditions: Breast Cancer BT549, combination with SR16388.
Description: as §1, §2

Test [15] concerns HCC2998. Briefly: 11×7 synergism hit rate. Conditions: Colon Cancer HCC2998, combination with SR16388.
Description: as §1, §2

Test [16] deals with SKMEL2. Nature of the test: 11×7 synergism hit rate. Conditions: Melanoma SKMEL2, combination with SR16388.
Description: as §1, §2

Test [17] concerns OVCAR5. Nature of the test: 11×7 synergism hit rate. Conditions: Ovarian Cancer OVCAR5, combination with SR16388.
Description: as §1, §2

For test [18], the system named is IGROV1. Briefly: 11×7 synergism hit rate. Conditions: Ovarian Cancer IGROV1, combination with SR16388.
Description: as §1, §2

Test [19] concerns LOXIMVI. Nature of the test: 11×7 synergism hit rate. The following applies: Melanoma LOXIMVI, combination with SR16388.
Description: as §1, §2

The subject of test [20] is MDAMB231. Nature of the test: 11×7 synergism hit rate. The following applies: Breast Cancer MDAMB231, combination with SR16388.
Description: as §1, §2

The test system of test [21] is NCIH522. Briefly: 11×7 synergism hit rate. Conditions: NSCLC NCIH522, combination with SR16388.
Description: as §1, §2

Test [22] has as its system T47D. Nature of the test: 11×7 synergism hit rate. Conditions: Breast Cancer T47D, combination with SR16388.
Description: as §1, §2

The test system of test [23] is panel of 48 to 60 cell lines. Briefly: 5×4 combination screen with SR16388; synergism hit rate by algorithm (Z score). The following applies: in combination with SR16388, all 20 (5×4) dose combinations. As to the method:
as §1
5) A “combination score” was assigned to each specific combination (Ca1b1x): C=1 if Za1b1x>3*SD and C=0 if Za1b1x≦3*SD score);
6) Hit rate of each combination was calculated by comparing the sum of the combination scores of all 20 (5×4) dose combinations with all cell lines to the total number of data points of that specific combination;
7) Hit rate were ranked from high to low to identify potential synergistic combinations.

`CC(=O)O[C@@]12CO[C@@H]1C[C@H](O)[C@@]1(C)C(=O)[C@H](O)C3=C(C)[C@@H](OC(=O)[C@H](O)[C@@H](NC(=O)OC(C)(C)C)c4ccccc4)C[C@@](O)([C@@H](OC(=O)c4ccccc4)[C@H]21)C3(C)C` [Docetaxel]: the “% Hit rate” value in [1] was found to be 31%; in test [2], 21%; in [3], 35%; in test [4] it was 4%; in test [5] it was 19%; in [6], 18%. The “% Hit rate” value in [7] amounted to 3%; in [8], 22%; in test [9], 3%; in test [10], 10%; in test [11], 0%; in test [12], 16%. The “% Hit rate” value in test [13] was 6%; in [14], 5%; in [15] it was 6%; in test [16], 12%; in test [17], 1%; in test [18] it was 3%. Moreover, the “% Hit rate” value is on record as 8% in test [19], 10% in test [20], 8% in test [21] and 19% in [22]. In addition, the “% hit/combo” value in test [23] is reported as 0.58%.
In the case of `CC[C@]1(O)C[C@H]2CN(CCc3c([nH]c4ccccc34)[C@@](C(=O)OC)(c3cc4c(cc3OC)N(C=O)[C@H]3[C@@](O)(C(=O)OC)[C@H](OC(C)=O)[C@]5(CC)C=CCN6CC[C@]43[C@@H]65)C2)C1` [Vincristine], the “% Hit rate” value came out at 19% in [1]; 5% in [2]; 14% in test [3]; 12% in test [4]; 8% in test [5]; 27% in [6]. Also, the “% Hit rate” value was 1% in test [7]; 17% in test [8]; 1% in test [9]; 14% in test [10]; 8% in test [11]; 23% in test [12]. In addition, the “% Hit rate” value in test [13] amounted to 6%; in test [14], 9%; in test [15], 4%; in test [16], 25%; in test [17] it was 1%; in [18], 8%. Moreover, the “% Hit rate” value is 5% in test [19], 17% in [20], 10% in test [21] and 16% in test [22]. In test [23], the “% hit/combo” value is recorded as 2.08%.
Regarding `CC(=O)O[C@H]1C(=O)[C@@]2(C)[C@H]([C@H](OC(=O)c3ccccc3)[C@]3(O)C[C@H](OC(=O)[C@H](O)[C@@H](NC(=O)c4ccccc4)c4ccccc4)C(C)=C1C3(C)C)[C@]1(OC(C)=O)CO[C@@H]1C[C@@H]2O` [Paclitaxel], the “% Hit rate” value in [1] is recorded as 35%; in test [2], 25%; in [3], 17%; in test [4] it was 10%; in test [5] it was 27%; in [6] it was 27%. The “% Hit rate” value in [7] is given as 1%; in [8], 23%; in [9], 0%; in [10], 13%; in [11], 12%; in [12] it was 25%. Also, the “% Hit rate” value in test [13] was 10%; in [14], 3%; in test [15], 12%; in test [16] it was 29%; in test [17], 6%; in test [18], 18%. Also, the “% Hit rate” value in test [19] was found to be 13%; in [20], 21%; in test [21], 10%; in test [22] it was 19%.
For the molecule `CC[C@]1(O)C[C@@H]2CN(CCc3c([nH]c4ccccc34)[C@@](C(=O)OC)(c3cc4c(cc3OC)N(C)[C@H]3[C@@](O)(C(=O)OC)[C@H](OC(C)=O)[C@]5(CC)C=CCN6CC[C@]43[C@@H]65)C2)C1` [Vinblastine], the “% Hit rate” value in test [1] worked out at 16%; in [2], 16%; in test [3] it was 12%; in test [4], 4%; in [5] it was 8%; in test [6] it was 12%. The “% Hit rate” value in [7] is reported as 0%; in test [8] it was 8%; in test [9], 1%; in test [10], 4%; in [11], 3%; in test [12] it was 10%. Besides, the “% Hit rate” value is 1% in [13]; 1% in [14]; 6% in test [15]; 3% in [16]; 0% in test [17]; 0% in test [18]. The “% Hit rate” value in test [19] stood at 1%; in test [20] it was 1%; in test [21], 4%; in test [22] it was 9%.
